{"source": "paper PMC3341351", "about": "“Down-Regulation of GABAA Receptor via Promiscuity with the Vasoactive Peptide Urotensin II Receptor. Potential Involvement in Astrocyte Plasticity” (PLoS ONE, 2012)", "molecules": {"B1": {"name": "UT^c-myc 319–389: peptidomimetic corresponding to the entire C-terminus cytosolic fragment of UT (protein, UniProt Q9UKP6 319-389, looked up, fragment)", "chain": "TRNYRDHLRGRVRGPGSGGGRGPVPSLQPRARFQRCSGRSLSSCSPQPTDSLVLAPAAPARPAPEGPRAPA", "modifications": "c-myc tag"}}, "assay_type_in_all_cases": "cell-based", "key": {"[1]": {"target": "T1, α2β3γ2 GABAAR co-expressed with human UT (Homo sapiens, UniProt Q9UKP6)", "T1 construct": "expressed in transfected cells; host or cells: CHO-K1 stably expressing human UT (pIRES-neo2-UT), transiently nucleofected with GABAAR subunit cDNAs", "T1 sequence (Q9UKP6 1-389)": "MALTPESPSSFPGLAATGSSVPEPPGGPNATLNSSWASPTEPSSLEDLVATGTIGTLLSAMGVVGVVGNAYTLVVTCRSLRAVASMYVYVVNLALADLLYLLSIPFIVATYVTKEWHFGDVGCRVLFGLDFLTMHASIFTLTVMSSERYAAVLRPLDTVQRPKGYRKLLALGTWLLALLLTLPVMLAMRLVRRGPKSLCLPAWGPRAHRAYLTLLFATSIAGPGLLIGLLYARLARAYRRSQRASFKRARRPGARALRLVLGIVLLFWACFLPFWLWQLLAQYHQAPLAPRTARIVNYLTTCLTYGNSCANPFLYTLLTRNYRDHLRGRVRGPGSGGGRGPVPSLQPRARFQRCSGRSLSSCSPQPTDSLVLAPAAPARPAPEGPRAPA", "test": "Patch-clamp of Iso-evoked current in CHO-UT co-expressing α2β3γ2 GABAAR (CHO-UT-GABAAR)", "conditions": "for Current inhibition by GABAAR antagonists: SR95531 10^−5 M, picrotoxin 10^−4 M", "protocol": "CHO-K1 cell lines were obtained from American Type Culture Collection (Manassas, VA, USA). The human UT stable CHO (CHO-UT) was generously provided by Dr Christophe Dubessy (Inserm, Rouen University, France) et generated by CHO electroporation with 20 µg pIRES-neo2-UT DNA and 500 µg sterile sonicated salmon sperm DNA using the EasyJect One electroporation system (Equibio, Angleur, Belgium), followed by repetitive rounds of limiting dilution of cells in G-418 (400 µg/ml) for selection. Normal or stable CHO was grown in Ham-F12 medium supplemented with 10% FBS, 1% antibiotic-antimicotic solution and 2 mM glutamine, at 37°C in a humidified incubator with an atmosphere of 5% CO2. The stable CHO-UT medium was supplemented with the antibiotic G-418 (40 µg/ml).\n(§1) For transfection, cells were trypsinized (0.05%), triturated in HamF-12 containing 10% FBS media, pelleted by centrifugation, resuspended in 100 µl solution V for nucleofection by an Amaxa Nucleofector Device (Köln, Germany; set to program U-016). Experiments were performed on normal CHO or on the stable CHO-UT cells and transiently transfected with combinations of cDNA encoding α2β3γ2, α2β3γ1, α2β1γ2, α2β3γ1, α2β3, β3γ2 (4 µg of cDNA total/transfection) GABAAR subunits. Cells were seeded on 14-mm poly-L-lysine-coated glass bottom insert dishes at 5×10^5 cells in a volume of 0.5 ml/dish. Cells were incubated overnight at 37°C in a humidified incubator (5% CO2) during 16 h before electrophysiological or immunocytochemical experiments.\n(§2) GABAA receptor cDNA clones; α2, β1, β3, γ1 and γ2L engineered into the expression vector pCDM8 ([…], β1, γ2) or pcDNA/Amp (β3, γ1), were generously provided by Dr Wingrove (Merk Sharp and Dohme, Harlow, UK). To obtain β3 ^HA or γ2 ^HA epitope-tagged subunits, β3 or γ2 cDNA was amplified and the PCR product was subcloned using the SalI and NotI sites of pCMV-HA (Table S2) after digestion by the same restriction enzymes.\n(§3) The conventional whole-cell configuration of the patch-clamp technique was used to study the GABA-gated currents in astrocytes and granule neurons, UT stably transfected CHO, CHO-UT, and CHO transiently transfected with diverse variants of UT and GABAAR subunits. After 24-h transfection, cell culture coverslips were placed in a small chamber (1.5 ml) on a stage of a right microscope DMLFSA (Leica, Heidelberg, Germany) and superfused continuously with the following bath solution containing (in mM): NaCl, 150; KCl, 2.5; HEPES, 5; CaCl2, 2; MgCl2, 1; glucose, 10 (pH 7.4 adjusted with NaOH). The patch pipettes were fabricated from 1.5 mm (outer diameter) soft glass tubes on a two-step vertical pipette puller (List-Medical, L/M-3P-A, Darmstadt, Germany). […] ATP and GTP were added to the internal solution used to fill electrode just before recording. All recordings were obtained at RT with cells voltage-clamped at −70 mV. The GABAA receptor agonist isoguvacine was prepared in the extracellular solution and was applied to cells by pneumatic pressure ejection. To prevent desenzitization, isoguvacine was more often ejected during 5 s at 2-min intervals. ATP, GTP, or guanosine 5′-O-(2-thiodiphosphate) (GDPβS) were administered through the patch pipette solution. We investigated the effect of competitive inhibition of GDP-GTP exchange by including GDPβS in the pipette solution (in addition to the normal amount of GTP). For GDPβS and the KIC, immediately following patch rupture, GABA current recordings were performed and the experiment was commenced after an equilibration period of 15 min.\nAll peptide ligands, inhibitors or allosteric modulators of the GABAA receptor function were applied via gravity through a plastic tubing positioned in the vicinity of the cell body in order to maintain a sustained perfusion. In these conditions, drugs could reach the cell of interest after 30 s of perfusion. Isoguvacine was applied focally by pneumatic pressure ejection from a micropipette."}, "[2]": {"tested_on": "α2β3γ2 GABAAR in the absence of UT", "test": "Patch-clamp of Iso-evoked current in CHO expressing α2β3γ2 GABAAR without UT", "conditions": "DMCM 10^−5 M; hUII and URP 10^−8 M; [Orn^5]-URP and palosuran 10^−6 M; Iso 10^−4 M, 2 s; n = 3–18", "protocol": "as §1, §2\nas §3, with “min. […]” for “min.”"}, "[3]": {"target": "T2, GABAAR in cerebellar astrocytes (UT co-expressed) (Rattus norvegicus, UniProt P49684)", "T2 construct": "Astrocytes, recognized by strong GFAP staining show UT immunoreactivity; endogenous in cells; host or cells: primary rat (P7 Wistar) cerebellar astrocytes co-cultured with cerebellar granule neurons", "T2 sequence (P49684 1-386)": "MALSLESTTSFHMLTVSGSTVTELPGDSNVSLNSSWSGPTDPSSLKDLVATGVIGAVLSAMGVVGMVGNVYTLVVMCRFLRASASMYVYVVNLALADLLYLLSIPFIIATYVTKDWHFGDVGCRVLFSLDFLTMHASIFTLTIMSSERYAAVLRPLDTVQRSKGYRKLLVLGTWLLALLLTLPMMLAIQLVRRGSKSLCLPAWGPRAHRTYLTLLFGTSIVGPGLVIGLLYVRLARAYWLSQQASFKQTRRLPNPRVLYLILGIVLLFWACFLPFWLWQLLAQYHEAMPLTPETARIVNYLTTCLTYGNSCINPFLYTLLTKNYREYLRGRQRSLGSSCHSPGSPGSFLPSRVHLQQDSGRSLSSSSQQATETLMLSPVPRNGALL", "test": "Whole-cell patch-clamp of isoguvacine (Iso)-evoked depolarization/chloride current in cerebellar astrocytes co-cultured with granule neurons", "conditions": "for inhibition at 0.1 µM: rUII 10^−7 M, 40 s, Iso 10^−4 M, mean ± SEM, n = 5", "protocol": "Primary Cell Culture of astrocytes and astrocyte-neurone co-culture\nPrimary cultures of astrocytes were prepared as previously described. Briefly, cerebellum from 7-day-old (P7) Wistar rats were collected in DMEM/Ham-F12 (2∶1, v/v) culture medium supplemented with 2 mM glutamine, 1% insulin, 5 mM HEPES, 0.4% D(+)-glucose and 1% of the antibiotic-antimycotic solution. The tissues were disaggregated mechanically with a syringue equipped with a 1-mm gauge needle, and filtered through a 100-µm pore size mesh filter (Falcon, Becton Dickinson, Grenoble, France). Dissociated cells were resuspended in culture medium supplemented with 10% heat-inactivated FBS and seeded in 150-cm^2 culture flasks (Falcon) at a density of 20×10^6 cells/flask. Cells were incubated at 37°C in a humidified atmosphere (5% CO2) and the medium was changed twice a week. When cultures were confluent, the flasks were gently shaken on an orbital shaker at […] for 2 h. Dislodged cells were discarded and a second step of purification was performed at […] for 14–16 h. Remaining adhesive cells were collected by trypsination, centrifuged (800 g, 10 min) and plated in 150-cm^2 flasks. Suspended astrocytes were harvested and seeded in 24-well poly-L-lysine-coated plates. The purity of the cultures was previously assessed by counting the percentage of astrocytes immunostained with GFAP antibodies. The enriched cultures contained >99% astrocytes.\nFor astrocyte-neuron co-culture, granule cell cultures were prepared from cerebella of P7 Wistar rats as described previously. Isolated cells were plated on 14-mm culture dishes coated with poly-L-lysine (5 mM) at a density of 1.5×10^6 cells/dish and incubated at 37°C in a humidified atmosphere (5% CO2) for 1 to 10 days before use. Culture medium consisted of DMEM/Ham's F12 (75%/25%) supplemented with 10% FBS, 2 mM glutamine, 5 µg/ml insulin, 25 mM KCl and 1% of antibiotic-antimycotic solution. Co-cultures are obtained by seeding granule cells (1.5×10^6 cells/ml) on cerebellar astrocytes plated in 24-well plates after 12 hours. Co-cultures are maintained in the specific medium for neuron and incubated at 37°C in an humidified atmosphere (5% CO2) for several days.\nas §3, with “min. […]” for “min.”"}}, "note": "Read-outs that look alike come from different tables or passages of the source. Where a SMILES comes first, the peptide text is derived from it. Bridges are numbered along the chain shown (N, C = ends). [ ]: non-standard residue; d: D form. pGlu = O=C1CC[C@@H](C(=O)O)N1"}
{"molecule": "CCCC(C)C1(CC)C(=O)NC(=O)NC1=O", "note": "(stereo not shown) [pentobarbital]", "values": [{"measurement": "Direct activation of chloride current", "setting": "[1]; pentobarbital 10^−5 M, Figure S1A", "value": "directly activated a chloride current"}, {"measurement": "Potentiation of the Iso-evoked current", "setting": "[1]; pentobarbital 10^−5 M, reversible, Figure S1A", "value": "196.28±12.33", "unit": "%"}]}
{"molecule": "O=C(O)CN(CC(=O)O)c1ccccc1OCCOc1ccccc1N(CC(=O)O)CC(=O)O", "note": "[BAPTA]", "values": [{"measurement": "Reduction of hUII-induced long-term current inhibition", "setting": "[1]; BAPTA 10^−4 M intracellular dialysis, n = 9", "value": "39.29±10.16", "unit": "%"}]}
{"molecule": "picrotoxin", "values": [{"measurement": "Current inhibition by GABAAR antagonists", "setting": "[1]; Figure S1A", "value": "56.76±4.33", "unit": "%"}]}
{"molecule": "Br.COc1ccc(-c2ccc(=N)n(CCCC(=O)O)n2)cc1", "note": "[SR95531]", "values": [{"measurement": "Current inhibition by GABAAR antagonists", "setting": "[1]; Figure S1A", "value": "76.92±10.35", "unit": "%"}]}
{"molecule": "CCc1c(C(=O)OC)ncc2[nH]c3cc(OC)c(OC)cc3c12", "note": "[DMCM, methyl 6,7-dimethoxy-4-ethyl-β-carboline-3-carboxylate]", "values": [{"measurement": "Effect on Iso-evoked current in the absence of UT", "setting": "[2]", "value": "induced inhibition of the current in most tested cells"}]}
{"molecule": "CC[C@H](C)[C@H](NC(=O)[C@@H]1CSSC[C@H](NC(=O)[C@H](CCC(=O)O)NC(=O)[C@@H]2CCCN2C(=O)[C@H](C)NC(=O)[C@@H](NC(=O)CNC(=O)[C@H](Cc2c[nH]cn2)NC(=O)[C@@H]2CCC(=O)N2)[C@@H](C)O)C(=O)N[C@@H](Cc2ccccc2)C(=O)N[C@@H](Cc2c[nH]c3ccccc23)C(=O)N[C@@H](CCCCN)C(=O)N[C@@H](Cc2ccc(O)cc2)C(=O)N1)C(=O)O", "note": "[rUII] ([pGlu]HGTAPECFWKYCI-OH; disulfide 8-13)", "values": [{"measurement": "EC50", "setting": "[3]; astrocytes, printed with a % sign before pM, read-out: EC50 for inhibition of the Iso-evoked current", "value": "43.6 ± 23.7", "unit": "pM"}, {"measurement": "inhibition at 0.1 µM", "setting": "[3]; co-cultured astrocytes, read-out: Inhibition of the amplitude of the Iso-evoked depolarization", "value": "24.2 ± 7.5", "unit": "%"}, {"measurement": "inhibition at 0.1 µM", "setting": "[3]; voltage clamp −60 mV, read-out: Inhibition of the amplitude of the Iso-evoked chloride current", "value": "33 ± 8", "unit": "%"}]}
{"molecule": "B1", "values": [{"measurement": "Effect of UT C-terminal peptidomimetic on fast and long-term effects of hUII on GABA-evoked current", "setting": "[1]; UT^c-myc 319–389 expressed in CHO-UT-GABAAR, hUII 10^−8 M", "value": "completely inhibited the fast and long-term effects of hUII on the GABA-evoked current"}]}
